# From patent US20120225093A1, “Abrogating HIV-1 Infection via Drug-Induced Reactivation of Apoptosis” (UNIVERSITY OF MEDICINE AND DENTISTRY OF NEW JERSEY, priority 2010, published 2012)
# Tests used:
# IL-10 = IL-10 secretion by PBMC cultures (cytometric bead array); format: cell-based, human; conditions: CPX added at inoculation or 12 hr later; Phase I
# Description: Uninfected PBMCs were co-incubated with infected PBMC stock in 24-well microplates at 2 ml/well Medium B, at a 10:1 ratio of uninfected-to-infected cells, and a total cell number of 1×10^6. Cultures were maintained and assayed for 6 consecutive days. CPX or Agent P2 was added at the time of inoculation or 12 hr later. Leaving the cell layer undisturbed, half the medium in each well was replenished every day, with concurrent adjustment of compound concentration. On each day during the 6-day experiments, a set of wells was harvested: the cells were processed for determination of viability and apoptosis, and the cell-free supernatants were stored at −80° C. for p24 and viral RNA measurements. Experiments were performed at least in duplicate and repeated at least twice.
# p24 core antigen in the supernatant was quantified by ELISA (Retrotek HIV-1 p24™; ZeptoMetrix Corp.; Buffalo, N.Y.). HIV-1 RNA copy number in the supernatant was determined with a PCR-based and FDA-approved assay (Amplicor HIV-1 Monitor™; Roche Diagnostics Corp.; Indianapolis, Ind.). IFN-γ and IL-10 in the supernatant were determined by cytometric bead array (Human Th1/Th2 Cytokine Kit II™; BD Biosciences Pharmingen, San Jose, Calif.).
# To further assess the cellular effects of CPX, the secretion of interferon (IFN)-γ and interleukin (IL)-10 was measured. […]
# [1] = in vivo; cited from earlier work
structure (smiles),measurement,setting,value
"Cc1cc(C2CCCCC2)n(O)c(=O)c1 [CPX, 6-cyclohexyl-1-hydroxy-4-methylpyridin-2[1H]-one]",HIV-induced rise of IL-10,IL-10,abolished the HIV-induced cytokine boost
same,tolerability,[1],well tolerated
